In one assay the target is PI3 K Alpha (Homo sapiens, UniProt P42336). The assay can be described thus: PI3 kinase phosphorylation assays (homogenous solution phase, one step solid phase, ATP depletion/KinaseGlo). Conditions: ATP depletion assay; read-out: PI3 K Alpha IC50. Type of assay: biochemical. The procedure: Compounds to be tested are dissolved in DMSO and directly distributed into 384-well flashplates at 1.25 μL per well. To start the reaction, 20 μL of 6 nM PI3 kinase are added into each well followed by 20 μL of 400 nM ATP containing a trace of radiolabeled ATP and 900 nM 1-alpha-phosphatidylinositol (PI). The plates are briefly centrifuged to remove any air gap. The reaction is performed for 15 minutes and then stopped by the addition of 20 μL of 100 mM EDTA. The stopped reaction is incubated overnight at RT to allow the lipid substrate to bind by hydrophobic interaction to the surface of the flashplate. The liquid in the wells is then washed away, and the labeled substrate is detected with scintillation counting.
PI3 K Alpha, sequence (P42336 whole entry): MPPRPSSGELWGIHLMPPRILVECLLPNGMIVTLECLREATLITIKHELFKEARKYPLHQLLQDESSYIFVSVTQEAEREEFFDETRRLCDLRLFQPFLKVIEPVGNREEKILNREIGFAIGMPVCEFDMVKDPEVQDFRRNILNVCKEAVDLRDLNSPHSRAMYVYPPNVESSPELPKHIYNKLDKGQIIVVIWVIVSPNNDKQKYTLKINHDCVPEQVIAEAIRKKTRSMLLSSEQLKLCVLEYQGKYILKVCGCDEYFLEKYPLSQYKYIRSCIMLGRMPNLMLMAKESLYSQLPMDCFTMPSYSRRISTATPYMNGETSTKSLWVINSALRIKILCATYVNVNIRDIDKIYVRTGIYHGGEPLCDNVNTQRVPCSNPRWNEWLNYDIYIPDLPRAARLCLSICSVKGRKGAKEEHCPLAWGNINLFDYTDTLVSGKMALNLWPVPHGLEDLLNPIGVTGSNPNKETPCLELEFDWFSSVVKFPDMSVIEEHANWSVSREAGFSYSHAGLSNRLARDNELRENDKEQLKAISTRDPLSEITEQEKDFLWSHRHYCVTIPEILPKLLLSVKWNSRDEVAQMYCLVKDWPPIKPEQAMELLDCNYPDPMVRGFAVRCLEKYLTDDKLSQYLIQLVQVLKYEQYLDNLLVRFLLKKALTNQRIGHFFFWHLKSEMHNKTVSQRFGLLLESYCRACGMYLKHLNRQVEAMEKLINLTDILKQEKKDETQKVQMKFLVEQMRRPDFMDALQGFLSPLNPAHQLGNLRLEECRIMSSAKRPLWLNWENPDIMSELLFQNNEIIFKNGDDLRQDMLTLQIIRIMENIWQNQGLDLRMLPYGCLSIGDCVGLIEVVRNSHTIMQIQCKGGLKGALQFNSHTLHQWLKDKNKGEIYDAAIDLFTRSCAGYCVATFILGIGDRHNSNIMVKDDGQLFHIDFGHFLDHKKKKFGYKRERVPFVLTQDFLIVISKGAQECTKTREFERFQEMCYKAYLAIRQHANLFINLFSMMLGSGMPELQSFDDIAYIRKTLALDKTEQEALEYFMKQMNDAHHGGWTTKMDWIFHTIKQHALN
PI3 K Alpha, sequence (P27986 whole entry partner): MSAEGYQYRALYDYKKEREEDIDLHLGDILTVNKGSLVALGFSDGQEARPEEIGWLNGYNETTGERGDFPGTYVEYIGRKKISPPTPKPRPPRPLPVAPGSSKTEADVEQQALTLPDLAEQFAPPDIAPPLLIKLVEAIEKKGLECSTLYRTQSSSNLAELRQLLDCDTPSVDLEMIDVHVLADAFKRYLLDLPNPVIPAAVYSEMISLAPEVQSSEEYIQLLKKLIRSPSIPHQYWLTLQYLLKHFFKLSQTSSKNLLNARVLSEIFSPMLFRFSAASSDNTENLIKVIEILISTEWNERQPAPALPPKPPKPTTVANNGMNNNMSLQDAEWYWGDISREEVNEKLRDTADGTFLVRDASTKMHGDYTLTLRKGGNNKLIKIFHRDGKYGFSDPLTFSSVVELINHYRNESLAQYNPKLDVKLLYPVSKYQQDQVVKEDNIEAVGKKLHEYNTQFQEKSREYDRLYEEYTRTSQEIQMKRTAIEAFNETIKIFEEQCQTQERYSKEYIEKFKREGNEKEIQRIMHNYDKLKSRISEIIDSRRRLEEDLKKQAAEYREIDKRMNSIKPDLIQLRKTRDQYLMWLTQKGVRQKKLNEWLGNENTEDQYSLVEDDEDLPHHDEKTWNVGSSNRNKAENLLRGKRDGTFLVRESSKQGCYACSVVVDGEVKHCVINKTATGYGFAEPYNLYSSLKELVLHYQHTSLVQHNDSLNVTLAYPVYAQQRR
This method is similar to Assay 1 except that the lipid substrate (1-alpha-phosphatidylinositol (PI)) is first dissolved in a coating buffer and incubated on flashplate at room temperature overnight to allow the lipid substrate to bind by hydrophobic interaction to the surface of the flashplate. Unbound substrate is then washed away. On the day of assay, 20 μL of 6 nM PI3 kinase are added into each well followed by 20 μL of 400 nM ATP containing trace of radiolabeled ATP. Compounds are added together with enzyme and ATP to the lipid-coated plates. The plates are briefly centrifuged to remove any air gap. The reaction is performed for two to three hours. The reaction is stopped by addition of 20 μL of 100 mM EDTA or by immediate plate washing. Phosphorylated lipid substrate is detected by scintillation counting.
Compounds to be tested are dissolved in DMSO and directly distributed into a black 384-well plate at 1.25 μL per well. To start the reaction, 25 μL of 10 nM PI3 kinase and 5 μg/mL 1-alpha-phosphatidylinositol (PI) are added into each well followed by 25 μL of 2 μM ATP. The reaction is performed until approx 50% of the ATP is depleted, and then stopped by the addition of 25 μL of KinaseGlo solution. The stopped reaction is incubated for 5 minutes and the remaining ATP is then detected via luminescence.
On the technique in general: In Kinase-Glo more light means more ATP remaining.
On to `Nc1cc(C(=O)Nc2nc3ccc(-c4cnc(N)c(C(F)(F)F)c4)cc3s2)ccn1` [Example 2-36, 2-amino-N-(6-(6-amino-5-(trifluoromethyl)pyridin-3-yl)benzo[d]thiazol-2-yl)isonicotinamide], for which the IC50 was less than 1 µM.

On to `CC(=O)Nc1nc2ccc(-c3ccc(NC4CCNCC4)nc3)cc2s1` [Example 2-19, N-{6-[6-(Piperidin-4-ylamino)-pyridin-3-yl]-benzothiazol-2-yl}-acetamide], for which the IC50 was less than 1 µM.

Turning to `CC(=O)Nc1nc2ccc(-c3cnc(NC(C)=O)c(C(F)(F)F)c3)cc2s1` [Example 2-22, N-[6-(6-Acetylamino-5-trifluoromethyl-pyridin-3-yl)-bezothiazol-2-yl]-acetamide], the IC50 is less than 1 µM.

In the case of `Nc1cccc(C(=O)Nc2nc3ccc(-c4cnc(N)c(C(F)(F)F)c4)cc3s2)n1` [Example 2-35, 6-amino-N-(6-(6-amino-5-(trifluoromethyl)pyridin-3-yl)benzo[d]thiazol-2-yl)picolinamide], the IC50 is less than 10 µM.

Turning to `Nc1ccc(-c2ccc3nc(NC(=O)OCCN4CCCCC4)sc3c2)cn1` [Example 2-20, [6-(6-Amino-pyridin-3-yl)-benzothiazol-2-yl]-carbamic acid 2-piperidin-1-yl-ethyl ester], the IC50 is less than 1 µM.

The assay is the same for the next values; noted with them: read-out: PI3K Alpha IC50.
`CC(=O)Nc1cn2cc(-c3cnc(N)nc3N)ccc2n1` [Example 48, N-(6-(2,4-diaminopyrimidin-5-yl)imidazo[1,2-a]pyridin-2-yl)acetamide]: the IC50 was less than 10 µM.

As to `Nc1ncc(-c2ccc3nc(NC(=O)N4CCC[C@H]4C(=O)O)cn3c2)cc1C(F)(F)F` [Example 49, (S)-1-(6-(6-amino-5-(trifluoromethyl)pyridin-3-yl)imidazo[1,2-a]pyridin-2-ylcarbamoyl) pyrrolidine-2-carboxylic acid], the IC50 is less than 10 µM.

`Nc1ncc(-c2ccc3nc(NC(=O)C4CCC(=O)N4)cn3c2)cc1C(F)(F)F` (stereo not shown) [Example 262, N-(6-(6-amino-5-(trifluoromethyl)pyridin-3-yl)imidazo[1,2-a]pyridin-2-yl)-5-oxopyrrolidine-2-carboxamide]: the IC50 is less than 1 µM.

For the compound `CC(=O)Nc1nc2ccc(-c3ccc(N)nc3)cn2c1Br` [Example 14, N-[6-(6-Amino-pyridin-3-yl)-3-bromo-imidazo[1,2-a]pyridin-2-yl]-acetamide], the concentration for half-maximal inhibition (IC50) is less than 10 µM.

Regarding `CC(=O)Nc1cn2cc(-c3cnc(N)c(O[C@H](C)C(F)(F)F)n3)cc(F)c2n1` [Example 265, (R)-N-(6-(5-amino-6-(1,1,1-trifluoropropan-2-yloxy)pyrazin-2-yl)-8-fluoroimidazo [1,2-a]pyridin-2-yl)acetamide], the IC50 is less than 1 µM.

In the case of `COc1ccc(C2CCCN2C(=O)Nc2cn3cc(-c4cnc(N)c(C(F)(F)F)c4)ccc3n2)cc1OC` (stereo not shown) [Example 276, N-(6-(6-amino-5-(trifluoromethyl)pyridin-3-yl)imidazo[1,2-a]pyridin-2-yl)-2-(3,4-dimethoxyphenyl) pyrrolidine-1-carboxamide], the IC50 was less than 1 µM.

In the case of `Nc1ncc(-c2ccc3nc(NC(=O)N4CCCC4Cc4ccccn4)cn3c2)cc1C(F)(F)F` (stereo not shown) [Example 273, N-(6-(6-amino-5-(trifluoromethyl)pyridin-3-yl)imidazo[1,2-a]pyridin-2-yl)-2-(pyridin-2-ylmethyl) pyrrolidine-1-carboxamide], the IC50 is less than 1 µM.

As for `CCN(CC)CCCc1c(NC(C)=O)nc2ccc(-c3cnc(N)c(C(F)(F)F)c3)cn12` [Example 17, N-[6-(6-Amino-5-trifluoromethyl-pyridin-3-yl)-3-(3-diethylamino-propyl)-imidazo[1,2-a]pyridin-2-yl]-acetamide], the IC50 is less than 10 µM.

In the case of `CC(=O)Nc1cn2nc(-c3cnc(N)c(-c4ccccc4Cl)c3)ccc2n1` [Example 260, N-(6-(6-amino-5-(2-chlorophenyl)pyridin-3-yl)imidazo[1,2-b]pyridazin-2-yl)acetamide], the IC50 was less than 1 µM.

Consider `Nc1ncc(-c2ccc3nc(NC(=O)C4CCC(=O)NC4)cn3c2)cc1C(F)(F)F` (stereo not shown) [Example 270, N-(6-(6-amino-5-(trifluoromethyl)pyridin-3-yl)imidazo[1,2-a]pyridin-2-yl)-6-oxopiperidine-3-carboxamide], for which the IC50 was less than 1 µM.

Turning to `Nc1ncc(-c2ccc3nc(NC(=O)[C@H]4CCC(=O)O4)cn3c2)cc1C(F)(F)F` [Example 264, (R)-N-(6-(6-amino-5-(trifluoromethyl)pyridin-3-yl)imidazo[1,2-a]pyridin-2-yl)-5-oxotetrahydro furan-2-carboxamide], the IC50 is less than 1 µM.

With `Nc1ncc(-c2ccc3nc(NC(=O)N4CCCC4c4nccs4)cn3c2)cc1C(F)(F)F` (stereo not shown) [Example 275, N-(6-(6-amino-5-(trifluoromethyl)pyridin-3-yl)imidazo[1,2-a]pyridin-2-yl)-2-(thiazol-2-yl)pyrrolidine-1-carboxamide], the IC50 was less than 1 µM.

As to `CC(=O)Nc1cn2cc(-c3cnc(N)c(S(=O)(=O)N4CCC(Oc5ccc(F)cc5)CC4)c3)ccc2n1` [Example 267, N-(6-(6-amino-5-(4-(4-fluorophenoxy)piperidin-1-ylsulfonyl)pyridin-3-yl)imidazo[1,2-a]pyridin-2-yl)acetamide], the IC50 was less than 1 µM.

For the compound `CC(=O)Nc1cn2cc(-c3cnc(N)cc3C(F)(F)F)ccc2n1` [Example 22, N-[6-(6-Amino-4-trifluoromethyl-pyridin-3-yl)-imidazo[1,2-a]pyridin-2-yl]-acetamide], the IC50 was less than 10 µM.

For the compound `CC(=O)Nc1cn2cc(-c3cnc(N)c(C(F)(F)F)c3)cc(C)c2n1` [Example 34, N-(6-(6-amino-5-(trifluoromethyl)pyridin-3-yl)-8-methylimidazo[1,2-a]pyridin-2-yl)acetamide], the IC50 is greater than 25 µM.

For `CC(=O)Nc1cn2cc(-c3cnc(N)c(Oc4cccc(F)c4)n3)cc(F)c2n1` [Example 261, N-(6-(5-amino-6-(3-fluorophenoxy)pyrazin-2-yl)-8-fluoroimidazo [1,2-a]pyridin-2-yl)acetamide], the IC50 is less than 1 µM.

Turning to `CC(=O)Nc1nc2ccc(-c3cnc(N)c(C(F)(F)F)c3)cn2c1C(C)=O` [Example 20, N-[3-Acetyl-6-(6-amino-5-trifluoromethyl-pyridin-3-yl)-imidazo[1,2-a]pyridin-2-yl]-acetamide], the IC50 was less than 10 µM.

As for `Nc1ncc(-c2ccc3nc(NC(=O)[C@@H]4CCC(=O)O4)cn3c2)cc1C(F)(F)F` [Example 268], the IC50 was less than 1 µM.

With `Nc1ncc(-c2ccc3nc(NC(=O)[C@@H](O)CCC(=O)O)cn3c2)cc1C(F)(F)F` [Example 272, (S)-5-(6-(6-amino-5-(trifluoromethyl)pyridin-3-yl)imidazo[1,2-a]pyridin-2-ylamino)-4-hydroxy-5-oxopentanoic acid], the IC50 was less than 1 µM.

With `CC(=O)Nc1cn2cc(-c3cnc(N)c(OC(F)F)c3)ccc2n1` [Example 263, N-(6-(6-amino-5-(difluoromethoxy)pyridin-3-yl)imidazo[1,2-a]pyridin-2-yl)acetamide], the IC50 was less than 1 µM.

As for `N#C/N=C(\N)NCCCC(=O)Nc1cn2nc(-c3cnc(N)c(C(F)(F)F)c3)ccc2n1` [Example 258, (E)-N-(6-(6-amino-5-(trifluoromethyl)pyridin-3-yl)imidazo[1,2-b]pyridazin-2-yl)-4-(2-cyanoguanidino) butanamide], the IC50 was less than 1 µM.

For the compound `COc1ccccc1C1CCCN1C(=O)Nc1cn2cc(-c3cnc(N)c(C(F)(F)F)c3)ccc2n1` (stereo not shown) [Example 277, N-(6-(6-amino-5-(trifluoromethyl)pyridin-3-yl)imidazo[1,2-a]pyridin-2-yl)-2-(2-methoxyphenyl) pyrrolidine-1-carboxamide], the IC50 is less than 1 µM.

As for `Nc1ncc(-c2ccc3nc(NC(=O)c4ccccc4C(=O)O)cn3c2)cc1C(F)(F)F` [Example 50, 2-(6-(6-amino-5-(trifluoromethyl)pyridin-3-yl)imidazo[1,2-a]pyridin-2-ylcarbamoyl) benzoic acid], the IC50 is less than 10 µM.

For `CC(=O)Nc1cn2c(-c3cnc(N)c(C(F)(F)F)c3)c(-c3cnc(N)c(C(F)(F)F)c3)ccc2n1` [Example 35, N-(5,6-bis(6-amino-5-(trifluoromethyl)pyridin-3-yl)imidazo[1,2-a]pyridin-2-yl)acetamide], the IC50 is greater than 25 µM.

As to `Nc1ncc(-c2ccc3nc(NC(=O)N4CCCC4c4ccco4)cn3c2)cc1C(F)(F)F` (stereo not shown) [Example 274, N-(6-(6-amino-5-(trifluoromethyl)pyridin-3-yl)imidazo[1,2-a]pyridin-2-yl)-2-(furan-2-yl)pyrrolidine-1-carboxamide], the IC50 was less than 1 µM.

In the case of `Nc1ncc(-c2ccc3nc(NC(=O)c4cccc(-c5nn[nH]n5)c4)cn3c2)cc1C(F)(F)F` [Example 269, N-(6-(6-amino-5-(trifluoromethyl)pyridin-3-yl)imidazo[1,2-a]pyridin-2-yl)-3-(2H-tetrazol-5-yl)benzamide], the IC50 was less than 1 µM.

The IC50 is the midpoint of a concentration-inhibition curve.

These data come from patent US20100075965A1, “PI3 KINASE INHIBITORS AND METHODS OF THEIR USE” (Novartis AG, priority 2006, published 2010).
